Among the data in PubChem BioAssay AID1745844 (Carcinogenic Potency Database (CPDB), 2022) are TD50 and carcinogen call values, retold here.

Activity calls are given as the source filed them. No rule for the calls is given here.

The series relates to rodent lifetime carcinogenesis bioassay, tumor incidence TD50. Kind of series: chronic cancer bioassays in animals – CPDB, compiled studies (AID 1745844).

On to `O=Nc1ccc(Nc2ccccc2)cc1`, for which the TD50 (in general, the dose at which the toxic effect under study appears in half of the subjects) is, setting by setting: (mouse, strain B6C3F1, females, in feed, site: any site (literature study), lesion: several types, types named in the paper, dosed 53 weeks, study length 92 weeks) 2170 mg/kg/day (inactive); (mouse, strain B6C3F1, females, in feed, site: liver, lesion: hepatocellular adenoma + hepatocellular carcinoma + neoplastic nodule, dosed 53 weeks, study length 92 weeks) 2250 mg/kg/day; (mouse, strain B6C3F1, females, in feed, site: lung, lesion: alveolar/bronchiolar adenoma + alveolar/bronchiolar carcinoma, dosed 53 weeks, study length 92 weeks) 5410 mg/kg/day; (mouse, strain B6C3F1, males, in feed, site: any site (literature study), lesion: several types, types named in the paper, dosed 53 weeks, study length 92 weeks) 260 mg/kg/day; (mouse, strain B6C3F1, males, in feed, site: liver, lesion: hepatocellular adenoma + hepatocellular carcinoma + neoplastic nodule, dosed 53 weeks, study length 92 weeks) 340 mg/kg/day; (mouse, strain B6C3F1, males, in feed, site: liver, lesion: hepatocellular adenoma + hepatocellular carcinoma, dosed 53 weeks, study length 92 weeks) 340 mg/kg/day. The TD50 runs as follows: (mouse, strain B6C3F1, males, in feed, site: liver, lesion: hepatocellular carcinoma, dosed 53 weeks, study length 92 weeks) 661 mg/kg/day; (mouse, strain B6C3F1, males, in feed, site: lung, lesion: alveolar/bronchiolar adenoma + alveolar/bronchiolar carcinoma, dosed 53 weeks, study length 92 weeks) 3520 mg/kg/day; (rat, strain Fischer 344, females, in feed, site: liver, lesion: hepatocellular adenoma + hepatocellular carcinoma + neoplastic nodule, dosed 78 weeks, study length 105 weeks) 1210 mg/kg/day; (rat, strain Fischer 344, males, in feed, site: liver, lesion: hepatocellular adenoma + hepatocellular carcinoma + neoplastic nodule, dosed 78 weeks, study length 105 weeks) 201 mg/kg/day; (rat, strain Fischer 344, males, in feed, site: liver, lesion: hepatocellular carcinoma + neoplastic nodule, dosed 78 weeks, study length 105 weeks) 201 mg/kg/day. Further, the carcinogen call (rat, strain Fischer 344, females, in feed, site: any site (literature study), lesion: several types, types named in the paper, dosed 78 weeks, study length 105 weeks) was “negative (inactive)”.

With `[Ge+4].[Na+].[Na+].[O-2].[O-2].[O-2]`, the carcinogen call reads like this: (mouse, strain Charles River CD1, both sexes, in drinking water, site: any site (literature study), lesion: benign tumor, dosed 104 weeks, study length 104 weeks) “negative (inactive)”; (mouse, strain Charles River CD1, both sexes, in drinking water, site: any site (literature study), lesion: malignant tumor, dosed 104 weeks, study length 104 weeks) “negative (inactive)”; (mouse, strain Charles River CD1, both sexes, in drinking water, site: any site (literature study), lesion: several types, types named in the paper, dosed 104 weeks, study length 104 weeks) “negative (inactive)”; (mouse, strain Charles River CD1, both sexes, in drinking water, site: liver, lesion: several types, types named in the paper, dosed 104 weeks, study length 104 weeks) “negative (inactive)”; (mouse, strain Charles River CD1, both sexes, in drinking water, site: lung, lesion: several types, types named in the paper, dosed 104 weeks, study length 104 weeks) “negative (inactive)”; (rat, strain Long-Evans BLU:(LE), both sexes, in drinking water, site: any site (literature study), lesion: malignant tumor, dosed 149 weeks, study length 149 weeks) “negative (inactive)”. The carcinogen call runs as follows: (rat, strain Long-Evans BLU:(LE), both sexes, in drinking water, site: any site (literature study), lesion: one or several types, types not named, dosed 149 weeks, study length 149 weeks) “negative (inactive)”; (rat, strain Long-Evans BLU:(LE), both sexes, in drinking water, site: liver, lesion: one or several types, types not named, dosed 149 weeks, study length 149 weeks) “negative (inactive)”.

For the compound `CCOP(=S)(OCC)Oc1ccc([N+](=O)[O-])cc1`, the carcinogen call is “negative (inactive)” (mouse, strain B6C3F1, females, in feed, site: any site (literature study), lesion: several types, types named in the paper, dosed 80 weeks, study length 89 weeks) and “negative (inactive)” (rat, strain Osborne-Mendel, females, in feed, site: any site (literature study), lesion: several types, types named in the paper, dosed 80 weeks, study length 112 weeks). Also, the TD50 was 75.1 mg/kg/day (inactive) (mouse, strain B6C3F1, males, in feed, site: any site (literature study), lesion: several types, types named in the paper, dosed 67 weeks, study length 89 weeks); 111 mg/kg/day (mouse, strain B6C3F1, males, in feed, site: liver, lesion: hepatocellular adenoma + hepatocellular carcinoma + neoplastic nodule, dosed 67 weeks, study length 89 weeks); 52.5 mg/kg/day (mouse, strain B6C3F1, males, in feed, site: lung, lesion: alveolar/bronchiolar adenoma + alveolar/bronchiolar carcinoma, dosed 67 weeks, study length 89 weeks); 3.93 mg/kg/day (rat, strain Osborne-Mendel, females, in feed, site: adrenal gland, lesion: cortical adenoma + cortical carcinoma, dosed 80 weeks, study length 109 weeks); 5.31 mg/kg/day (rat, strain Osborne-Mendel, females, in feed, site: adrenal gland, lesion: cortical adenoma, dosed 80 weeks, study length 109 weeks); 16.4 mg/kg/day (rat, strain Osborne-Mendel, females, in feed, site: liver, lesion: hepatocellular adenoma + hepatocellular carcinoma + neoplastic nodule, dosed 80 weeks, study length 112 weeks). The TD50 is 2.07 mg/kg/day (rat, strain Osborne-Mendel, females, in feed, site: mammary gland, lesion: fibroadenoma, dosed 80 weeks, study length 109 weeks); 5.22 mg/kg/day (rat, strain Osborne-Mendel, males, in feed, site: adrenal gland, lesion: cortical adenoma + cortical carcinoma, dosed 80 weeks, study length 109 weeks); 6.39 mg/kg/day (rat, strain Osborne-Mendel, males, in feed, site: adrenal gland, lesion: cortical adenoma, dosed 80 weeks, study length 109 weeks); 3.65 mg/kg/day (inactive) (rat, strain Osborne-Mendel, males, in feed, site: any site (literature study), lesion: several types, types named in the paper, dosed 80 weeks, study length 112 weeks); 17.7 mg/kg/day (rat, strain Osborne-Mendel, males, in feed, site: liver, lesion: hepatocellular adenoma + hepatocellular carcinoma + neoplastic nodule, dosed 80 weeks, study length 112 weeks); 19.2 mg/kg/day (rat, strain Osborne-Mendel, males, in feed, site: pancreatic islets, lesion: islet-cell carcinoma, dosed 80 weeks, study length 109 weeks).

Take `ClC1(Cl)C2(Cl)C3C4(Cl)C1(Cl)C1(Cl)C4(Cl)C(Cl)(Cl)C3(Cl)C21Cl` (stereo unspecified): the TD50 reads like this: (rat, strain Sprague-Dawley, males, in feed, site: liver, lesion: neoplastic nodule, dosed 91 weeks, study length 91 weeks) 6.68 mg/kg/day; (rat, strain Sprague-Dawley, males, in feed, site: thyroid gland, lesion: adenoma, dosed 91 weeks, study length 91 weeks) 1.46 mg/kg/day.

Consider `NNC(N)=O`, for which the TD50 was 975 mg/kg/day (mouse, strain Swiss albino, females, in drinking water, site: blood vessels, lesion: angioma, dosed 118 weeks, study length 118 weeks); 798 mg/kg/day (mouse, strain Swiss albino, females, in drinking water, site: blood vessels, lesion: angiosarcoma, dosed 118 weeks, study length 118 weeks); 395 mg/kg/day (mouse, strain Swiss albino, females, in drinking water, site: blood vessels, lesion: several types, types named in the paper, dosed 118 weeks, study length 118 weeks); 798 mg/kg/day (mouse, strain Swiss albino, females, in drinking water, site: liver, lesion: several types, types named in the paper, dosed 118 weeks, study length 118 weeks); 333 mg/kg/day (mouse, strain Swiss albino, females, in drinking water, site: lung, lesion: adenoma, dosed 118 weeks, study length 118 weeks); 223 mg/kg/day (mouse, strain Swiss albino, females, in drinking water, site: lung, lesion: several types, types named in the paper, dosed 118 weeks, study length 118 weeks). For the same compound, the TD50 by setting is: (mouse, strain Swiss albino, males, in drinking water, site: liver, lesion: hepatoma, dosed 118 weeks, study length 118 weeks) 1420 mg/kg/day (inactive); (mouse, strain Swiss albino, males, in drinking water, site: liver, lesion: several types, types named in the paper, dosed 118 weeks, study length 118 weeks) 933 mg/kg/day; (mouse, strain Swiss albino, males, in drinking water, site: lung, lesion: adenoma, dosed 118 weeks, study length 118 weeks) 745 mg/kg/day; (mouse, strain Swiss albino, males, in drinking water, site: lung, lesion: several types, types named in the paper, dosed 118 weeks, study length 118 weeks) 833 mg/kg/day.

As to `CCN(CC)C(=O)c1cccc(C)c1`, the TD50 is, setting by setting: (mouse, strain Charles River CD1, females, in feed, site: liver, lesion: hepatocellular adenoma, dosed 78 weeks, study length 78 weeks) 150000 mg/kg/day (inactive); (mouse, strain Charles River CD1, females, in feed, site: liver, lesion: hepatocellular carcinoma, dosed 78 weeks, study length 78 weeks) 87000 mg/kg/day (inactive); (mouse, strain Charles River CD1, females, in feed, site: lung, lesion: alveolar/bronchiolar adenoma, dosed 78 weeks, study length 78 weeks) 14500 mg/kg/day (inactive); (mouse, strain Charles River CD1, males, in feed, site: liver, lesion: hepatocellular adenoma, dosed 78 weeks, study length 78 weeks) 2580 mg/kg/day (inactive); (mouse, strain Charles River CD1, males, in feed, site: liver, lesion: hepatocellular carcinoma, dosed 78 weeks, study length 78 weeks) 11500 mg/kg/day (inactive); (rat, strain Charles River CD (Sprague-Dawley), females, in feed, site: liver, lesion: hepatocellular adenoma, dosed 104 weeks, study length 104 weeks) 16700 mg/kg/day (inactive). For the same compound, the TD50 (rat, strain Charles River CD (Sprague-Dawley), males, in feed, site: liver, lesion: hepatocellular adenoma, dosed 104 weeks, study length 104 weeks) was 3390 mg/kg/day (inactive). Besides, the carcinogen call (mouse, strain Charles River CD1, males, in feed, site: lung, lesion: alveolar/bronchiolar adenoma, dosed 78 weeks, study length 78 weeks) was “negative (inactive)”; the carcinogen call (rat, strain Charles River CD (Sprague-Dawley), females, in feed, site: liver, lesion: hepatocellular carcinoma, dosed 104 weeks, study length 104 weeks) is “negative (inactive)”; the carcinogen call (rat, strain Charles River CD (Sprague-Dawley), males, in feed, site: liver, lesion: hepatocellular carcinoma, dosed 104 weeks, study length 104 weeks) is “negative (inactive)”.
